The source of these data is patent publication US9296758B2, “2-quinolinyl-acetic acid derivatives as HIV antiviral compounds” (GILEAD SCIENCES, INC., priority 2010, dated 2016).

pEC50: −log10 of the molar value.

The first experiment has as its system HIV-IIIb. Nature of the experiment: Test A: Antiviral Assays in MT4 Cells. In kind it is cell-based. Particulars: Human immunodeficiency virus 1, IIIB, MT4, 120 h, MT-4 cells infected with HIV-IIIb (0.004 m.o.i.), 5 days of incubation, CellTiter-Glo chemiluminescence readout. As to the method:
Test A: Antiviral Assays in MT4 Cells For the antiviral assay utilizing MT-4 cells, 0.4 μL of 189X test concentration of 3-fold serially diluted compound in DMSO was added to 40 μL of cell growth medium (RPMI 1640, 10% FBS, 1% penicillin/Streptomycin, 1% L-Glutamine, 1% HEPES) in each well of 384-well assay plates (10 concentrations) in quadruplicate. 1 mL aliquots of 2×10e6 MT-4 cells are pre-infected for 1 and 3 hrs respectively, @ 37° C. with 25 μL (MT4) or of either cell growth medium (mock-infected) or a fresh 1:250 dilution of an HIV-IIIb concentrated ABI stock (0.004 m.o.i. for MT4 cells). Infected and uninfected cells are diluted in cell growth medium and 35 uL of 2000 (for MT4) cells is added to each well of the assay plates. Assay plates were then incubated in a 37° C. incubator. After 5 days of incubation, 25 μl of 2× concentrated CellTiter-Glo™ Reagent (catalog #G7573, Promega Biosciences, Inc., Madison, Wis.) was added to each well of the assay plate. Cell lysis was carried out by incubating at room temperature for 2-3 min and then chemiluminescence was read using the Envision reader (PerkinElmer).
In the case of `Cc1cc2c(ccc(=O)n2Cc2ccccc2)c(-c2ccc(Cl)cc2)c1[C@H](OC(C)(C)C)C(=O)O` [Compound 65B, (S)-2-(1-benzyl-5-(4-chlorophenyl)-7-methyl-2-oxo-1,2-dihydroquinolin-6-yl)-2-tert-butoxyacetic acid], the pEC50 (in general, the EC50 on a negative log10 scale, so that one unit is a factor of ten) is 7.26.
The same measure, in the same setting: the figure for `Cc1cc2nc(N(C)CC(C)C)ccc2c(-c2ccc3c4c(ccnc24)CCO3)c1[C@H](OC(C)(C)C)C(=O)O` [Compound 92, (S)-2-tert-butoxy-2-((R)-5-(2,3-dihydropyrano[4,3,2-de]quinolin-7-yl)-2-(isobutyl(methyl)amino)-7-methylquinolin-6-yl)acetic acid] is 6.52; for `Cc1cc2nc(-c3cncn3C)ccc2c(-c2ccc3c4c(ccnc24)CCO3)c1[C@H](OC(C)(C)C)C(=O)O` (atropisomer, axis not shown) [Compound 83, (S)-2-tert-Butoxy-2-((R)-5-(2,3-dihydropyrano[4,3,2-de]quinolin-7-yl)-7-methyl-2-(1-methyl-1H-imidazol-5-yl)quinolin-6-yl)acetic acid] it is 7.38.
Still for that read-out and setting: the figure for `Cc1cc2nc(NCc3ccncc3)ccc2c(-c2ccc(Cl)cc2)c1[C@H](OC(C)(C)C)C(=O)O` [Compound 33, (S)-2-tert-Butoxy-2-(5-(4-chlorophenyl)-7-methyl-2-(pyridin-4-ylmethylamino)quinolin-6-yl)acetic acid] is 7.02; for `Cc1cc2nc(CN3CCCCC3)ccc2c(-c2ccc(Cl)cc2)c1[C@H](OC(C)(C)C)C(=O)O` [Compound 11, (S)-2-tert-Butoxy-2-(5-(4-chlorophenyl)-7-methyl-2-(piperidin-1-ylmethyl)quinolin-6-yl)acetic acid] it is 6.32.
Compound `Cc1cc2nc(C(C)C)ccc2c(-c2ccc3c4c(ccnc24)CCO3)c1[C@H](OC(C)(C)C)C(=O)O` [Compound 46, (S)-2-tert-Butoxy-2-((R)-5-(2,3-dihydropyrano[4,3,2-de]quinolin-7-yl)-2-isopropyl-7-methylquinolin-6-yl)acetic acid] had a pEC50 of 7.70.
Still for that read-out and setting: then `Cc1cc2nc(-c3cccnc3)ccc2c(-c2ccc(Cl)cc2)c1[C@H](OC(C)(C)C)C(=O)O` [Compound 74, (S)-2-tert-butoxy-2-(5-(4-chlorophenyl)-7-methyl-2-(pyridin-3-yl)quinolin-6-yl)acetic acid], with 7.04.
The same measure, in the same setting: the figure for `Cc1cc2nc(CCc3ccccc3)ccc2c(-c2ccc(Cl)cc2)c1[C@H](OC(C)(C)C)C(=O)O` [Compound 37B, (S)-2-tert-butoxy-2-(5-(4-chlorophenyl)-7-methyl-2-phenethylquinolin-6-yl)acetic acid] is 7.34; for `Cc1ccc2c(-c3ccc(Cl)cc3)c([C@H](OC(C)(C)C)C(=O)O)c(C)cc2n1` [Compound 2K, (S)-2-tert-butoxy-2-(5-(4-chlorophenyl)-2,7-dimethylquinolin-6-yl)acetic acid] it is 7.26; for `Cc1cc2nc(-c3ccccn3)ccc2c(-c2ccc3c4c(ccnc24)CCO3)c1[C@H](OC(C)(C)C)C(=O)O` (atropisomer, axis not shown) [Compound 80, (S)-2-tert-Butoxy-2-((R)-5-(2,3-dihydropyrano[4,3,2-de]quinolin-7-yl)-7-methyl-2-(pyridin-2-yl)quinolin-6-yl)acetic acid] it is 7.28.
`Cc1cc2nc(NC3CC3)ccc2c(-c2ccc(Cl)cc2)c1[C@H](OC(C)(C)C)C(=O)O` [Compound 30, (S)-2-tert-butoxy-2-(5-(4-chlorophenyl)-2-(cyclopropylamino)-7-methylquinolin-6-yl)acetic acid] showed a pEC50 of 6.82.
Same read-out and setting: the figure for `Cc1cc2nc(-c3ccc(Cl)cc3)ccc2c(-c2ccc3c4c(ccnc24)CCO3)c1[C@H](OC(C)(C)C)C(=O)O` (atropisomer, axis not shown) [Compound 56, (S)-2-tert-Butoxy-2-((R)-2-(4-chlorophenyl)-5-(2,3-dihydropyrano[4,3,2-de]quinolin-7-yl)-7-methylquinolin-6-yl)acetic acid] is 7.40; for `Cc1cc2nc(C#Cc3ccccc3)ccc2c(-c2ccc(Cl)cc2)c1[C@H](OC(C)(C)C)C(=O)O` [Compound 37A, (S)-2-tert-butoxy-2-(5-(4-chlorophenyl)-7-methyl-2-(phenylethynyl)quinolin-6-yl)acetic acid] it is 7.44.
Consider `Cc1cc2nc(C#Cc3ccccc3)ccc2c(-c2ccc3c4c(ccnc24)CCO3)c1[C@H](OC(C)(C)C)C(=O)O` (atropisomer, axis not shown) [Compound 40, (S)-2-tert-butoxy-2-((R)-5-(2,3-dihydropyrano[4,3,2-de]quinolin-7-yl)-7-methyl-2-(phenylethynyl)quinolin-6-yl)acetic acid], for which the pEC50 is 7.29.
The same measure, in the same setting: then `CC(=O)c1ccc2c(-c3ccc4c5c(ccnc35)CCO4)c([C@H](OC(C)(C)C)C(=O)O)c(C)cc2n1` [Compound 111, (S)-2-((R)-2-Acetyl-5-(2,3-dihydropyrano[4,3,2-de]quinolin-7-yl)-7-methylquinolin-6-yl)-2-tert-butoxyacetic acid], with 6.45; and `Cc1cc2nc(N3CCC3)ccc2c(-c2ccc3c4c(ccnc24)CCO3)c1[C@H](OC(C)(C)C)C(=O)O` (atropisomer, axis not shown) [Compound 95, (S)-2-((R)-2-(azetidin-1-yl)-5-(2,3-dihydropyrano[4,3,2-de]quinolin-7-yl)-7-methylquinolin-6-yl)-2-tert-butoxyacetic acid], with 7.27.
Same read-out and setting: the figure for `Cc1ccc2c(-c3ccc(Cl)cc3)c([C@H](OC(C)(C)C)C(=O)O)c(Cl)cc2n1` [Compound 1L, (S)-2-tert-butoxy-2-(7-chloro-5-(4-chlorophenyl)-2-methylquinolin-6-yl)acetic acid] is 6.77.
Still for that read-out and setting: the figure for `Cc1cc2c(ccc3nc(C(C)C)cn32)c(-c2ccc3c4c(ccnc24)CCO3)c1[C@H](OC(C)(C)C)C(=O)O` [Compound 60, (S)-2-tert-Butoxy-2-((R)-6-(2,3-dihydropyrano[4,3,2-de]quinolin-7-yl)-2-isopropyl-8-methylimidazo[1,2-a]quinolin-7-yl)acetic acid] is 6.52.
For the compound `Cc1cc2[nH]c(=O)ccc2c(-c2ccc(Cl)cc2)c1[C@H](OC(C)(C)C)C(=O)O` [Compound 8L, (S)-2-tert-butoxy-2-(5-(4-chlorophenyl)-7-methyl-2-oxo-1,2-dihydroquinolin-6-yl)acetic acid], the pEC50 was 6.25.
On the same count and under the same terms, the figure for `Cc1cc2nc(-c3ccn[nH]3)ccc2c(-c2ccc3c4c(ccnc24)CCO3)c1[C@H](OC(C)(C)C)C(=O)O` (atropisomer, axis not shown) [Compound 71, (S)-2-tert-butoxy-2-((R)-5-(2,3-dihydropyrano[4,3,2-de]quinolin-7-yl)-7-methyl-2-(1H-pyrazol-5-yl)quinolin-6-yl)acetic acid] is 6.93; for `CNc1ccc2c(-c3ccc(Cl)cc3)c([C@H](OC(C)(C)C)C(=O)O)c(C)cc2n1` [Compound 31, (S)-2-tert-butoxy-2-(5-(4-chlorophenyl)-7-methyl-2-(methylamino)quinolin-6-yl)acetic acid] it is 6.98; for `Cc1cc2nc(Cc3ccccc3)ccc2c(-c2ccc3c4c(ccnc24)CCO3)c1[C@H](OC(C)(C)C)C(=O)O` (atropisomer, axis not shown) [Compound 53, (S)-2-((R)-2-Benzyl-5-(2,3-dihydropyrano[4,3,2-de]quinolin-7-yl)-7-methylquinolin-6-yl)-2-tert-butoxyacetic acid] it is 6.44.
Take `Cc1cc2nc(NCCN3CCOCC3)ccc2c(-c2ccc(Cl)cc2)c1[C@H](OC(C)(C)C)C(=O)O` [Compound 34, (S)-2-tert-Butoxy-2-(5-(4-chlorophenyl)-7-methyl-2-(2-morpholinoethylamino)quinolin-6-yl)acetic acid]: the pEC50 is 6.58.
Same read-out and setting: the figure for `Cc1cc2nc(C3CCCCC3)ccc2c(-c2ccc3c4c(ccnc24)CCO3)c1[C@H](OC(C)(C)C)C(=O)O` (atropisomer, axis not shown) [Compound 52, (S)-2-tert-Butoxy-2-((R)-2-cyclohexyl-5-(2,3-dihydropyrano[4,3,2-de]quinolin-7-yl)-7-methylquinolin-6-yl)acetic acid] is 7.60.
The compound `Cc1cc2ncccc2c(-c2ccc(Cl)cc2)c1[C@H](OC(C)(C)C)C(=O)O` [Compound 3L, (S)-2-tert-butoxy-2-(5-(4-chlorophenyl)-7-methylquinolin-6-yl)acetic acid] had a pEC50 of 5.98.

Staying with this experiment, now noted: MT-4 cells infected with HIV-IIIb (0.004 m.o.i.), 5 days of incubation, CellTiter-Glo chemiluminescence readout.
Take `Cc1ccc2c(-c3ccc4c(c3Cl)NCCO4)c([C@H](OC(C)(C)C)C(=O)O)c(C)cc2n1` [Compound 89, (S)-2-tert-Butoxy-2-((R)-5-(5-chloro-3,4-dihydro-2H-benzo[b][1,4]oxazin-6-yl)-2,7-dimethylquinolin-6-yl)acetic acid]: the pEC50 is 7.38.
`Cc1ccc2c(-c3ccc(Cl)cc3Cl)c([C@H](OC(C)(C)C)C(=O)O)c(C)cc2n1` [Compound 5J, (S)-2-tert-butoxy-2-((S)-5-(2,4-dichlorophenyl)-2,7-dimethylquinolin-6-yl)acetic acid]: the pEC50 was 7.72.
For `Cc1ccc2c(-c3ccc4c5c(ccnc35)CCO4)c([C@H](OC(C)(C)C)C(=O)O)c(C)cc2n1` [Compound 6D, (S)-2-tert-butoxy-2-((R)-5-(2,3-dihydropyrano[4,3,2-de]quinolin-7-yl)-2,7-dimethylquinolin-6-yl)acetic acid], the pEC50 was 7.70.
